The record followed here is US9732084B2, “Pyrrolobenzodiazepines used to treat proliferative diseases” (priority 2010, dated 2017).

Type in all cases: cell-based
The subject of experiment [1] is Caki-1. Nature of the experiment: Free drug in vitro cytotoxicity (resazurin). Particulars: Homo sapiens, Caki-1 cells, 96 hours. Here is the method: (§1) Cells as detailed below were collected and plated in 96 well black-sided plates at a density of 10,000 cells/well in 150 μL of medium. Serial dilutions of the test article (50 μL) were added, and incubation was carried out for 92 hours at 37° C. After addition of test compound, cultures were incubated to 96 hours at 37° C. Resazurin (0.25 mM, 50 μL, Sigma, St. Louis, Mo.) in medium was added and incubation was continued for 4 h. The plates were read on a Fusion HT microplate reader (Packard, Meriden, Conn.) using an excitation wavelength of 525 nm and an emission wavelength of 590 nm. Data from all assays were reduced using GraphPad Prism Version 4 for Windows (GraphPad Software, San Diego, Calif.). The IC50 concentrations compared to untreated control cells were determined using a 4 parameter curve fits.
(In general: Alamar Blue is a resazurin reagent that responds to reducing activity.)

The next experiment concerns TF1a. Nature of the experiment: Free drug in vitro cytotoxicity (resazurin). Particulars: TF-1a, TF1a cells, 96 hours. On the procedure: as §1
The subject of experiment [2] is 786-O. Nature of the experiment: Free drug in vitro cytotoxicity (resazurin). Particulars: Homo sapiens, 786-0, 786-O cells, 96 hours. On the procedure: as §1
Experiment [3] has as its system MCF-7. Nature of the experiment: Free drug in vitro cytotoxicity (resazurin). Particulars: Homo sapiens, MCF7, MCF-7 cells, 96 hours. Here is the method: as §1
The test system of another experiment is HEL. Nature of the experiment: Alternative cell assay (Cell Titer Glo cytotoxicity). Particulars: Homo sapiens, HEL cells, 48 hours. Here is the method:
(§2) Cells were plated in 150 μL growth media per well into black-sided clear-bottom 96-well plates (Costar, Corning) and allowed to settle for 1 hour in the biological cabinet before placing in the incubator at 37° C., 5% CO2. The following day, 4× concentration of drug stocks were prepared, and then titrated as 10-fold serial dilutions producing 8-point dose curves and added at 50 μl per well in duplicate. Cells were then incubated for 48 hours at 37° C., 5% CO2. Cytotoxicity was measure by incubating with 100 μL Cell Titer Glo (Promega) solution for 1 hour, and then luminescence was measured on a Fusion HT plate reader (Perkin Elmer). Data was processed with Excel (Microsoft) and GraphPad (Prism) to produce dose response curves and IC50 values were generated and data collected.
For orientation: Cellular ATP, detected with luciferase, serves as a proxy for viable cell number.

In experiment [4] the test system is Caki-1. The experiment is described as above. Particulars: Homo sapiens, Caki-1 cells, 48 hours. Here is the method: as §2
Experiment [5] concerns 786-O. The description is as above. Particulars: Homo sapiens, 786-0, 786-O cells, 48 hours. Here is the method: as §2
For another experiment, the system named is BxPC-3. Described as above. Particulars: Homo sapiens, BxPC-3 cells, 48 hours. Here is the method:
as §2

Experiment [6] has as its system MCF-7. The description is as above. Particulars: Homo sapiens, MCF7, MCF-7 cells, 48 hours. On the procedure:
as §2

The next experiment deals with HL-60. The description is as above. Particulars: Homo sapiens, HL-60 cells, 48 hours. Here is the method: as §2

For the compound `COc1cc2c(cc1OCCCOc1cc3c(cc1OC)C(=O)N1C=C(c4ccc(N)cc4)C[C@H]1C=N3)N=C[C@@H]1CC(C)=CN1C2=O` [Compound 11, (S)-2-(4-aminophenyl)-7-methoxy-8-(3-((S)-7-methoxy-2-methyl-5-oxo-5,11a-dihydro-1H-pyrrolo[2,1-c][1,4]benzodiazepine-8-yloxy)propoxy)-1H-pyrrolo[2,1-c][1,4]benzodiazepine-5(11aH)-one], the IC50 in the experiment with Caki-1 [1] came out at 0.06 nM; in the experiment on TF1a it was 0.07 nM; with 786-O [2], 0.1 nM; in the experiment with MCF-7 [3] it was 0.2 nM; with HEL it was 0.06 nM; with Caki-1 [4] it was 0.4 nM. The IC50 in the experiment with 786-O [5] came out at 0.85 nM; with BxPC-3 it was 3 nM; in the experiment with MCF-7 [6], 7 nM; in the experiment with HL-60 it was 0.1 nM.

Turning to `CC=CC1=CN2C(=O)c3cc(OC)c(OCCCCCOc4cc5c(cc4OC)C(=O)N4C=C(c6cccc(N)c6)C[C@H]4C=N5)cc3N=C[C@@H]2C1` [Compound 15, (S)-2-(3-aminophenyl)-8-(5-((S)-2-propenyl-7-methoxy-5-oxo-5,11a-dihydro-1H-pyrrolo[2,1-c][1,4]benzodiazepine-8-yloxy)pentyloxy)-7-methoxy-1H-pyrrolo[2,1-c][1,4]benzodiazepine-5(11aH)-one], the IC50 with MCF-7 [3] turned out to be 0.03 nM.

In the case of `COc1cc2c(cc1OCCCOc1cc3c(cc1OC)C(=O)N1C=C(c4cccc(N)c4)C[C@H]1C=N3)N=C[C@@H]1CC(C)=CN1C2=O` [Compound 18, (S)-2-(3-aminophenyl)-7-methoxy-8-(3-((S)-7-methoxy-2-methyl-5-oxo-5,11a-dihydro-1H-pyrrolo[2,1-c][1,4]benzodiazepine-8-yloxy)propoxy)-1H-pyrrolo[2,1-c][1,4]benzodiazepine-5(11aH)-one], the IC50 with Caki-1 [1] turned out to be 0.6 nM; with TF1a it was 0.7 nM; with 786-O [2], 1 nM; with MCF-7 [3], 2 nM.

One may read the IC50 as the concentration that inhibits the measured activity by half.
